The values below come from patent US11096975B2, “Compositions for use in the treatment of tumors resistant to chemotherapy” (PROBIOTICAL S.P.A., priority 2015, dated 2021).

The subject of one data set is MDA-MB-231 cells. Nature of the data set: Cell viability of MDA-MB-231 cells after 7 days of treatment (Tables 7-9). Format: cell-based, human.
Data set [1] concerns MDA-MB-231 (breast adenocarcinoma). Nature of the data set: Cell viability of chemoresistant MDA-MB-231 cells (Tables 1, 2, 4). An excerpt:
(§1) The activity of the association of at least one flavonoid with synthetic chemotherapeutic agents (cyclophosphamide/methotrexate) and/or arctigenin, arctiin, berberine, berbamine, sanguinarine and chelerythrine (indicated with the term “Extracts” in the Tables) was studied in resistant cell lines of adenocarcinomas and carcinomas in comparison with chemosensitive tumour cell lines and line cells.
(§2) In particular, chemoresistant human tumour cells MDA-MB-231 (breast adenocarcinoma), ECV-304 (bladder carcinoma), HuH-7 (hepatocellular carcinoma) and HTB-43 (squamous cell carcinoma of the pharynx), chemosensitive tumour cells MCF-7 (breast adenocarcinoma) and non-tumoral healthy human mammal fibroblasts (HMF) were used.

Data set [2] concerns healthy human mammal fibroblasts (HMF). Nature of the data set: Cell viability of non-tumoral healthy fibroblasts HMF (Table 1). Conditions: control = 100.
Source text: as §1, §2

For data set [3], the system named is HuH-7 (hepatocellular carcinoma). Nature of the data set: cells. Conditions: Homo sapiens, Huh-7, read-out: Cell viability (%) HuH-7.
Source text: as §1, §2

For data set [4], the system named is ECV-304 (bladder carcinoma). Nature of the data set: cells. The conditions noted are these: Homo sapiens, ECV-304, read-out: Cell viability (%) ECV-304.
Source text: as §1, §2

The test system of data set [5] is HTB-43 (squamous cell carcinoma of the pharynx). Nature of the data set: cells. Conditions: Homo sapiens, read-out: Cell viability (%) HTB-43.
Source text: as §1, §2

The subject of data set [6] is MCF-7 (breast adenocarcinoma). Nature of the data set: Cell viability of chemosensitive MCF-7 cells (Table 1). The conditions noted are these: Homo sapiens, MCF7, read-out: Cell viability (%) MCF-7.
Source text: as §1, §2

A further data set can be described thus: in vitro. Conditions: human.
Source text: as §1, §2

[7] abbreviates: Homo sapiens, MDA-MB-231, read-out: Cell viability (%) MDA-MB-231.

For `O=P1(N(CCCl)CCCl)NCCCO1` (stereo not shown) [Cyclophosphamide, cyclophosphamide], the viability at 40 µM in the data set on MDA-MB-231 cells (Homo sapiens, MDA-MB-231, 168 h, read-out: Cell viability % (MDA-MB-231, 7 days)) worked out at 1.07 ± 0.22%. Besides, the viability at 0.85 µg/mL in data set [1] (setting [7]) was 96%; in data set [3] it was 58%; in data set [4], 70%; in data set [5], 36%; in data set [6], 6.9%. Further, the figures for the viability at 1 µg/mL in data set [1] (setting [7]) and in data set [6] were 93% and 7.5%, respectively. Also, the figures for the viability at 1.3 µg/mL in data set [1] (setting [7]) and in data set [6] were 89% and 8.6%, respectively. Also, the “Cell viability (%) HMF” value in data set [2] (single agent at 850 ng/mL) worked out at 54%; in data set [2] (single agent at 1000 ng/mL), 48%; in data set [2] (single agent at 1300 ng/mL), 42%.
In the case of `O=c1c(O)c(-c2ccc(O)c(O)c2)oc2cc(O)cc(O)c12` [Quercetin, quercetin], in data set [1] (setting [7]), the viability at 20 µM came out at 91%, the viability at 50 µM was determined as 81% and the viability at 100 µM is 76%. Further, the “Synergistic effect in association with cyclophosphamide” value in data set [1] (MDA-MB-231 cells, alone or with cyclophosphamide 850 ng/mL) is reported as “absence of synergistic effects”.
Turning to `C[C@@H]1O[C@@H](OC[C@H]2O[C@@H](Oc3c(-c4ccc(O)c(O)c4)oc4cc(O)cc(O)c4c3=O)[C@H](O)[C@@H](O)[C@@H]2O)[C@H](O)[C@H](O)[C@H]1O` [Rutin, 2-(3,4-dihydroxyphenyl)-4,5-dihydroxy-3-{3,4,5-trihydroxy-6-[(3,4,5-trihydroxy-6-methyl-oxan-2-yl)oxymethyl}oxan-2-yl]oxy-chromen-7-one], in the data set with MDA-MB-231 cells (20 μM of rutin, MDA-MB-231, 7 days), the “Effect on cell viability of adding the flavonoid to cyclophosphamide 20 μM+methotrexate 2 μM” value is “further reduces cell viability”. In addition, the “Effect on cell viability of adding the flavonoid to cyclophosphamide 40 μM+methotrexate 4 μM” value in the data set on MDA-MB-231 cells (rutin at 100 μM and 50 μM, MDA-MB-231, 7 days) is given as “no statistically relevant difference”. Also, in data set [1] (setting [7]), the viability at 20 µM is 66%, the viability at 50 µM was found to be 58% and the viability at 100 µM amounted to 51%. Besides, in “in vitro”, the viability at 20 µM is 92%, the viability at 50 µM amounted to 88% and the viability at 100 µM was found to be 86%. For the same compound, in data set [6], the viability at 20 µM came to 8%, the viability at 50 µM worked out at 5% and the viability at 100 µM is 4%.
